Data taken from doi:10.1101/2023.01.30.526200v1, “The virus-encoded ion channel “viroporin” activity of the agnoprotein is required for BK Polyomavirus release from infected kidney cells” (biorxiv, 2023).

Tests used:
[1] = biological target: T1, BKPyV agnoprotein (recombinant 10xHis BK agnoprotein) (Betapolyomavirus hominis, UniProt P03085); assay: carboxyfluorescein release from liposomes, endpoint fluorescence; type: biochemical; details: recombinant protein pre-incubated with compound 10 min at room temperature; PA/PC liposomes, HBS pH 7.4; compound concentration not in text
T1 construct: full-length, N-terminal 10xHis tag kept (pET19b, codon optimised), expressed in E. coli, purified by Ni-NTA, cation exchange and C4, dissolved in DMSO; SDS-resistant oligomers (copy number undefined); reconstituted in PA/PC liposomes

[2] = biological target: T1, BKPyV agnoprotein (recombinant 10xHis BK agnoprotein); assay: as above; type: biochemical; details: recombinant protein pre-incubated with compound 10 min at room temperature; PA/PC liposomes, HBS pH 7.4; 400 uM rimantadine

T1 sequence (P03085 whole entry): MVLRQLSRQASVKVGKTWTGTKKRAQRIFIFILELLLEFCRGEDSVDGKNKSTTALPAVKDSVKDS

Row | SMILES | reduction in CF release [1] | % reduction in channel activity at 400 uM [2]
1 | CCCCCCCCCN1C[C@H](O)[C@@H](O)[C@H](O)[C@H]1CO [NN-DNJ] | Addition of NN-DNJ also led to a significant reduction in agnoprotein mediated CF release | 
2 | CC(N)C12CC3CC(CC(C3)C1)C2 (centres unmarked) [rimantadine] |  | ~ 50%
